Reference: PubChem BioAssay (NCI)
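Test compounds were applied to cells in 96-well plates for 48 hours at 5 doses. Abbreviation: GI50, concentration required for 50% inhibition of growth. At the TGI there is no net growth.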

Assays:
Assay in all cases: inhibition of tumour cell growth, NCI panel, 48 h
[1] = test system: MCF7 breast
[2] = test system: HOP-92 NSCLC
[3] = test system: SF-295 CNS
[4] = test system: UACC-257 melanoma
[5] = test system: KM12 colon
[6] = test system: EKVX NSCLC
[7] = test system: NCI/ADR-RES ovarian
[8] = test system: SN12C renal
[9] = test system: NCI-H460 lung
[10] = test system: HS 578T breast
[11] = test system: SF-539 CNS
[12] = test system: OVCAR-3 ovarian
[13] = test system: SNB-19 CNS
[14] = test system: 786-0 renal
[15] = test system: SNB-75 CNS
[16] = test system: A498 renal
[17] = test system: OVCAR-5 ovarian
[18] = test system: RXF 393 renal
[19] = test system: SK-MEL-28 melanoma
[20] = test system: NCI-H23 lung
[21] = test system: COLO 205 colon
[22] = test system: TK-10 renal
[23] = test system: SK-MEL-5 melanoma
[24] = test system: ACHN renal
[25] = test system: HCT-116 colon
[26] = test system: HCC-2998 colon
[27] = test system: UO-31 renal
[28] = test system: HOP-62 NSCLC
[29] = test system: CAKI-1 renal
[30] = test system: MALME-3M melanoma
[31] = test system: OVCAR-8 ovarian
[32] = test system: CCRF-CEM leukemia
[33] = test system: HCT-15 colon
[34] = test system: RPMI-8226 leukemia
[35] = test system: UACC-62 melanoma
[36] = test system: T-47D breast
[37] = test system: BT-549 breast
[38] = test system: HL-60(TB) leukemia
[39] = test system: IGROV1 ovarian
[40] = test system: MOLT-4 leukemia
[41] = test system: SF-268 CNS
[42] = test system: MDA-MB-231 breast
[43] = test system: HT29 colon
[44] = test system: U251 CNS
[45] = test system: NCI-H226 lung
[46] = test system: DU-145 prostate
[47] = test system: NCI-H522 lung
[48] = test system: M14 melanoma
[49] = test system: SK-OV-3 ovarian
[50] = test system: MDA-MB-435
[51] = test system: OVCAR-4 ovarian
[52] = test system: LOX IMVI melanoma
[53] = test system: A549 NSCLC
[54] = test system: SK-MEL-2 melanoma
[55] = test system: SW-620 colon
[56] = test system: PC-3 prostate
[57] = test system: SR leukemia
[58] = test system: K-562 leukemia

O=C(Cc1ccc(F)c(F)c1)Nc1cc(C2(C(F)(F)F)CC2)nn1Cc1ccccc1
GI50 [1]: 3.9 µM
TGI [1]: > 15 µM
GI50 [2]: 2.32 µM
TGI [2]: 8.75 µM
GI50 [3]: 3.77 µM
TGI [3]: 14.7 µM
GI50 [4]: 3.61 µM
TGI [4]: 12.4 µM
GI50 [5]: 4.41 µM
TGI [5]: > 15 µM
GI50 [6]: 2.98 µM
TGI [6]: 12.2 µM
GI50 [7]: 3.98 µM
TGI [7]: > 15 µM
GI50 [8]: 4.64 µM
TGI [8]: > 15 µM
GI50 [9]: 3.16 µM
TGI [9]: 7.58 µM
GI50 [10]: 1.53 µM
TGI [10]: 10.1 µM
GI50 [11]: 4.33 µM
TGI [11]: > 15 µM
GI50 [12]: 3.85 µM
TGI [12]: 14.5 µM
GI50 [13]: 4.54 µM
TGI [13]: > 15 µM
GI50 [14]: 4.52 µM
TGI [14]: > 15 µM
GI50 [15]: 0.747 µM
TGI [15]: 7.09 µM
GI50 [16]: 0.548 µM
TGI [16]: 4.35 µM
GI50 [17]: 4 µM
TGI [17]: > 15 µM
GI50 [18]: 2.65 µM
TGI [18]: 12.2 µM
GI50 [19]: 4.81 µM
TGI [19]: > 15 µM
GI50 [20]: 3.61 µM
TGI [20]: 10.9 µM
GI50 [21]: 2.7 µM
TGI [21]: 6.34 µM
GI50 [22]: 4.5 µM
TGI [22]: > 15 µM
GI50 [23]: 2.77 µM
TGI [23]: 5.4 µM
GI50 [24]: 3.85 µM
TGI [24]: 14.2 µM
GI50 [25]: 4.28 µM
TGI [25]: > 15 µM
GI50 [26]: 4.77 µM
TGI [26]: > 15 µM
GI50 [27]: 2.99 µM
TGI [27]: 10.5 µM
GI50 [28]: 4.55 µM
TGI [28]: > 15 µM
GI50 [29]: 3.24 µM
TGI [29]: 11.5 µM
GI50 [30]: 2.49 µM
TGI [30]: 7.85 µM
GI50 [31]: 5.06 µM
TGI [31]: > 15 µM
GI50 [32]: 4.79 µM
TGI [32]: > 15 µM
GI50 [33]: 4.03 µM
TGI [33]: > 15 µM
GI50 [34]: 2.82 µM
TGI [34]: 8.67 µM
GI50 [35]: 4.33 µM
TGI [35]: > 15 µM
GI50 [36]: 2.96 µM
TGI [36]: 13 µM
GI50 [37]: 3.73 µM
TGI [37]: > 15 µM
GI50 [38]: 3.43 µM
TGI [38]: 8.33 µM
GI50 [39]: 4.47 µM
TGI [39]: > 15 µM
GI50 [40]: 3.96 µM
TGI [40]: 13.8 µM
GI50 [41]: 4.27 µM
TGI [41]: > 15 µM
GI50 [42]: 3.05 µM
TGI [42]: 7.25 µM
GI50 [43]: 3.74 µM
TGI [43]: > 15 µM
GI50 [44]: 4.61 µM
TGI [44]: > 15 µM
GI50 [45]: 4.85 µM
TGI [45]: > 15 µM
GI50 [46]: 5.34 µM
TGI [46]: > 15 µM
GI50 [47]: 3.08 µM
TGI [47]: 9.89 µM
GI50 [48]: 5.66 µM
TGI [48]: > 15 µM
GI50 [49]: 3.56 µM
TGI [49]: 11.8 µM
GI50 [50]: 3.67 µM
TGI [50]: 11.4 µM
GI50 [51]: 3.34 µM
TGI [51]: > 15 µM
GI50 [52]: 4.9 µM
TGI [52]: > 15 µM
GI50 [53]: 4.6 µM
TGI [53]: > 15 µM
GI50 [54]: 4.4 µM
TGI [54]: > 15 µM
GI50 [55]: 3.91 µM
TGI [55]: > 15 µM
GI50 [56]: 4.67 µM
TGI [56]: > 15 µM
GI50 [57]: 3.89 µM
TGI [57]: > 15 µM
GI50 [58]: 5.01 µM
TGI [58]: > 15 µM
